Data published in patent publication US9504674B2, “TrkB agonists and methods of use” (EMORY UNIVERSITY, priority 2010, dated 2016).

B1: BDNF: brain-derived neurotrophic factor, from Roche (protein, UniProt P23560 19-247, looked up)
Neurotrophic factor BDNF …: APMKEANIRGQGGLAYPGVRTHGTLESVNGPKAGSRGLTSLADTFEHVIEELLDEDQKVRPNEENNKDADLYTSRVMLSSQVPLEPPLLFLLEEYKNYLDAANMSMRVRRHSDPARRGELSVCDSISEWVTAADKKTAVDMSGGTVTVLEKVPVSKGQLKQYFYETKCNPMGYTKEGCRGIDKRHWNSQCRTTQSYVRALTMDSKKRIGWRFIRIDTSCVCTLTIKRGR

These molecules were tested against T1, TrkB (Rattus norvegicus, UniProt Q63604) (assay: TrkB phosphorylation in primary rat cortical neurons (immunoblotting)). Details: 500 nM compound, 20 min, primary rat cortical neurons, immunoblotting.
T1 construct: endogenous in cells; host or cells: primary rat cortical neurons (E17 embryos, 13 DIV)
T1 sequence (Q63604 32-821): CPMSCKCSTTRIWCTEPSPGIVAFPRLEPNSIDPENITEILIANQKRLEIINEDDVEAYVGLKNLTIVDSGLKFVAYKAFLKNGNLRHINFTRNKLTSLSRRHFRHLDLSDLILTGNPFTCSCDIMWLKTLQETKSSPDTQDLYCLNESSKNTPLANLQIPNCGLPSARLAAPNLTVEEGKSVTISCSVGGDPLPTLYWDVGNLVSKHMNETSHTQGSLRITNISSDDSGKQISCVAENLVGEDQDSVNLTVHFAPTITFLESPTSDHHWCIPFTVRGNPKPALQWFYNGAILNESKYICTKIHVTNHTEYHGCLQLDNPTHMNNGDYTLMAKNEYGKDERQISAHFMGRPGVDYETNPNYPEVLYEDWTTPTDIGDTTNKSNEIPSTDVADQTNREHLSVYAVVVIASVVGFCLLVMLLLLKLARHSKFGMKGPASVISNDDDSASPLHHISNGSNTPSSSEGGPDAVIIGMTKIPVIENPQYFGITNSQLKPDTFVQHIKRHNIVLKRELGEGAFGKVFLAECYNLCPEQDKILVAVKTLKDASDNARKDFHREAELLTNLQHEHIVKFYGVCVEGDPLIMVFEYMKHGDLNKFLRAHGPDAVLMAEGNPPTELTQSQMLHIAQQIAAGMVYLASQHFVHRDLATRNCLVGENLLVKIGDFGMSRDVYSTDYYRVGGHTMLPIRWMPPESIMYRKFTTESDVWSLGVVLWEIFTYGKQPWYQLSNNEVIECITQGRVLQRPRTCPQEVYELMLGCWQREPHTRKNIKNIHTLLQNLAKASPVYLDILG
Type: cell-based
Experimental: (§1) Primary rat cortical neurons from E17 embryos (13 DIV) were treated with 500 nM various chemicals for 15 min. The neuronal cell lysates were collected and resolved on 10% SDS-PAGE. Immunoblotting was conducted with various antibodies. p-TrkB Y817 antibody was employed at 1:20000-40000 dilution.
as §1, with “days in vitro (DIV))” for “DIV)”, “1:20,000-40,000 dilution (top panel). Equal amount of TrkB was loaded in all of the samples (middle panel). P-Akt 473 ELISA analysis with the neuronal lysates (bottom panel).” for “1:20000-40000 dilution.”
7,8-dihydroxyflavone (7,8-DHF) is a small molecular TrkB agonist. Preliminary structure-activity relationship study (SAR) supports that 7,8-catechol moiety is essential for the agonistic effect by 7,8-DHF. To explore the structure-activity relationship (SAR) in depth, the TrkB stimulatory activity was examined by numerous flavonoid derivatives. The numeric positions and each ring's nomenclature are designated (FIG. 1A). Compounds were dissolved in DMSO, then diluted into […] with 1× PBS (final vehicle contains 10% DMSO/PBS) (FIG. 1B). Primary rat cortical neurons were treated with 500 nM compounds for 20 min. The cell lysates were analyzed by immunoblotting. […] Downstream activation of the TrkB target Akt was tightly correlated with TrkB activation patterns by these derivatives (FIG. 1C, bottom panel). As observed, the hydroxy groups on B ring can regulate 7,8-DHF's stimulatory activity on TrkB receptor. As 2′-hydroxy, especially 3′-hydroxy group, elevates the agonistic effect, whereas 4′-hydroxy group diminishes its stimulatory effect.
To compare the TrkB activation by these synthetic compounds, primary cortical cultures were prepared. Cortical neurons were treated with 500 nM of various compounds for 20 min and cell lysates were collected. […] Replacing the H-bond acceptor O atom with hydrogen bond donor NH abolishes its stimulatory effect. […] On the other hand, 7,8-DHF provoked TrkB activation with the minimal concentration of 100 nM (FIG. 2B, right panels). To further study 4′-DMA-7,8-DHF's kinetics on TrkB activation, primary neurons were treated for various time points. 4′-DMA-7,8-DHF swiftly activated TrkB as soon as 5 minutes following treatment. […] To compare the stimulatory effect on TrkB receptor in mouse brains, 1 mg/kg of the synthesized derivatives were injected into C57BL/6J mice. TrkB activation was monitored at different time points.
Additional compounds are listed as designated from a to m (FIG. 6A). The compounds were dissolved in DMSO, then diluted into 500 μM with 1× PBS (final vehicle contains 10% DMSO/PBS). The primary rat cortical neurons (13 DIV) were treated with 500 nM compounds for 20 min. The cell lysates were analyzed by immunoblotting. […] Moreover, p-Akt ELISA was monitored to quantitatively analyze the agonistic activities of these compounds.

Row | TrkB activation (phosphorylation) compared to vehicle control | Molecule
1 | stimulated TrkB activation | O=c1c(O)c(-c2ccccc2O)oc2c(O)c(O)ccc12 [3,7,8,2′-tetrahydroxyflavone]
2 | stimulated TrkB activation | O=c1c(O)c(-c2ccccc2)oc2cc(O)ccc12 [3,7-dihydroxyflavone]
3 | stimulated TrkB activation | O=c1cc(-c2ccccc2)oc2c(O)c(O)cc(O)c12 [5,7,8-trihydroxyflavone]
4 | stimulated TrkB activation | O=c1cc(-c2ccccc2O)oc2c(O)c(O)ccc12 [7,8,2′-trihydroxyflavone]
5 | barely activated TrkB | O=c1cc(-c2ccc(O)cc2)oc2c(O)c(O)ccc12 [7,8,4′-trihydroxyflavone, reference compound]
6 | barely activated TrkB | COc1ccc(-c2cc(=O)c3ccc(O)cc3o2)cc1 [7-hydroxy-4′methoxyflavone, reference compound]
7 | barely activated TrkB | COc1ccc2c(=O)cc(-c3ccccc3)oc2c1O [8-hydroxy-7-methoxyflavone, reference compound]
8 | failed to provoke TrkB activation | O=c1cc(-c2ccc(F)cc2)[nH]c2c(O)c(O)ccc12 [#2, 2-(4-fluorophenyl)-7,8-dihydroxyquinolin-4(1H)-one]
9 | failed to provoke TrkB activation | O=c1cc(-c2ccccc2)[nH]c2c(O)c(O)ccc12 [#3, 7,8-dihydroxy-2-phenylquinolin-4(1H)-one]
10 | strongly activated TrkB | O=c1cc(-c2cncnc2)oc2c(O)c(O)ccc12 [#4, 7,8-dihydroxy-2(pyrimidin-5-yl)-4H-chromen-4-one]

Row | Molecule | TrkB activation (phosphorylation) compared to vehicle control
11 | O=c1c(O)c(-c2ccc(O)c(O)c2)oc2c(O)c(O)cc(O)c12 [3,5,7,8,3′,4′-hexahydroxylatedflavone, reference compound] | completely blocked TrkB phosphorylation
12 | O=c1cc(-c2cccc(O)c2)oc2cc(O)ccc12 [7,3′-dihydroxyflavone] | even more robust stimulatory effect on TrkB phosphorylation than the lead
13 | O=c1cc(-c2cccc(O)c2)oc2c(O)c(O)ccc12 [7,8,3′-trihydroxyflavone] | even more robust stimulatory effect on TrkB phosphorylation than the lead

Same assay, conditions: BDNF 100 ng/ml, primary rat cortical neurons

Row | TrkB activation (phosphorylation) | Molecule
14 | strongly activated TrkB | B1

The molecules below were run against T2, TrkB F616A (Mus musculus, UniProt P15209, F616A) (assay: Forced swim test in TrkB F616A knockin mice with or without 1NMPP1). Details: TrkB F616A knockin mice, control groups without TrkB agonist.
T2 construct: from tissue; host or cells: TrkB F616A knock-in mice (brain; whole animal in the forced swim test)
T2 sequence (P15209 32-821 F616A): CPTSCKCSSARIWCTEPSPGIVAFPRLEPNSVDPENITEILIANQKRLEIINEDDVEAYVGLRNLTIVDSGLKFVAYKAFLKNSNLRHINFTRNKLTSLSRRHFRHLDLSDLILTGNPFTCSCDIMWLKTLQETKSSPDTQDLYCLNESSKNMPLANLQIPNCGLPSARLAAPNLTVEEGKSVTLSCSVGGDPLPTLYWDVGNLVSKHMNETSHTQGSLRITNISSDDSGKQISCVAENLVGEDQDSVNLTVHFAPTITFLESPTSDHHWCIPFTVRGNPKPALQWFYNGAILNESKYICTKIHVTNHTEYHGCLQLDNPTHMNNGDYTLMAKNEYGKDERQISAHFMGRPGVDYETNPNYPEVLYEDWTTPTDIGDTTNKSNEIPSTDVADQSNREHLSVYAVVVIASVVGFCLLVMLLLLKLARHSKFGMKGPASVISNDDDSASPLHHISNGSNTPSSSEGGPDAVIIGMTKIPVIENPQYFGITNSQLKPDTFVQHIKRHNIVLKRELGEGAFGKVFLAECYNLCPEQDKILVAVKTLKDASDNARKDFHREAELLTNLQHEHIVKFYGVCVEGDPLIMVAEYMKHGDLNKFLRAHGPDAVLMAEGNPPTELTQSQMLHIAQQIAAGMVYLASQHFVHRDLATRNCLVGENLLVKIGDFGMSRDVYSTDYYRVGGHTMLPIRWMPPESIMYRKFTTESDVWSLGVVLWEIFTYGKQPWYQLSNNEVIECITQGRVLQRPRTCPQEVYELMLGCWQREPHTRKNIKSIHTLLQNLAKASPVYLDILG
Type: in vivo
Experimental: Male TrkB knockin mice were given the regular drinking water or 1NMPP1 (25 μM) containing drinking water one day before we started to inject the drugs and sustained throughout the whole experiment. The indicated control (saline) and drugs were administrated for 5 days. […] None of the drugs produced a significant change in 1NMPP1 treated TrkB KI mice (n=6 to 7 mice) as compared to control.
TrkB F616A knockin mice were used to assess whether the behavior responses by 7,8-DHF and its derivative is mediated by TrkB receptor. Transgenic mice were subjected to saline or 1NMPP1 pretreatment, respectively.

Row | immobility time, 1NMPP1 treated versus saline control group | Molecule
15 | No significant difference | CC(C)(C)n1nc(Cc2cccc3ccccc23)c2c(N)ncnc21 [1NMPP1]
